PubChem BioAssay (NCI)
Values joined by “and” are separate entries in the source; they are usually repeats but may differ in a detail not shown here. Identical values can stand only once.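 96-well plates; 48 h exposure; 5 concentrations. Endpoints by linear interpolation between flanking doses. Not reached: highest tested concentration assigned. At the GI50, growth is halved. TGI marks complete inhibition of growth.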

The compounds below were run on MDA-MB-468 breast (assay: NCI-60 cell line screen, 48 h).

SMILES | GI50 | TGI
CNCCNc1nc2ccccc2c2c(=O)c3cccc(C)c3sc12 | 892 nM | 1940 nM
O=C1/C(=C/c2ccccc2[N+](=O)[O-])COc2ccc(O)c(O)c21 | 608 nM | 2940 nM
CCN(CCO)CCCOc1ccc2c(Nc3cc(CC(=O)Nc4cccc(F)c4)[nH]n3)ncnc2c1 | 1040 nM and 109 nM | 18900 nM
CNCCN(C)Cc1cn[nH]c1-c1ccc(OC2CC(OCCC3CCOCC3)C2)cc1 (centres undefined) | 33700 nM | > 100000 nM
CCCCOc1ccc(S(=O)(=O)N2CCN(c3nc(C)cc(N4CCOCC4)n3)CC2)cc1 | 2690 nM | > 100000 nM
COC(=O)[C@]12CC[C@@H](C)[C@H](C)[C@@H]1C1=CC[C@@H]3[C@@]4(C)CC(=O)[C@H](O)[C@@](C)(CO)[C@@H]4C(=O)C[C@@]3(C)[C@]1(C)CC2 | 15200 nM | 32200 nM
CS(=O)(=O)N1CCc2c(-c3cnc(N)nc3)nc(N3CCOCC3)nc21 | 305 nM and 264 nM | 3000 nM and 2300 nM
COc1ccc2c(c1)N(CCO)C1=C(C(=O)OC1)C2c1ccc(OC)c(OC)c1 (centres undefined) | 1740 nM | 7570 nM
N#Cc1ccc(/C=C/C(=O)c2ccccc2)cc1 | 5950 nM and 1890 nM | 21100 nM and 5440 nM
CC(C)[C@H](C(=O)O[C@@H]1/C=C/C(=O)O[C@@H](C)CCC/C=C/[C@@H]2C[C@H](O)C[C@H]21)N(C)C | 1610 nM | 4620 nM
N=C1/C(=C2\Nc3ccccc3S2)CC(=O)N1c1ccc(SC(F)F)cc1 | > 100000 nM | > 100000 nM
CCCc1n(Cc2ccc3ccccc3n2)cc[n+]1Cc1ccc2ccccc2n1 | 232 nM | 1550 nM
O=C(CSc1ncc(-c2ccccc2)n1-c1ccccc1)Nc1ccc(-c2nc3ccccc3s2)cc1 | 1350 nM | 4960 nM
CCN1C(=O)N(CC)C2C1NN=c1s/c(=C\c3ccc(OC)cc3)c(=O)n12 (centres undefined) | 130 nM | > 60800 nM
Fc1ccc(-c2c(-c3ccncc3)[nH]c3nccnc23)cc1 | 4480 nM | > 21500 nM
Oc1cccc(-c2nc(-c3ccccc3)[nH]c2-c2ccncc2)c1 | 2080 nM | 11400 nM
CC1(O)COCCCCOc2c(CN)cccc2NC(=O)c2nc(cnc2N)-c2ccc(cc2)S(=O)(=O)C(C)(C)C1 (centres undefined) | 939 nM | 2520 nM
N[C@@H](CSSC[C@H](N)C(=O)N1CCn2cc(-c3ccccc3)nc2[C@@H]1CC1CCCCC1)C(=O)N1CCn2cc(-c3ccccc3)nc2[C@@H]1CC1CCCCC1 | 1070 nM | 2530 nM
CNc1ncc2cc(-c3cc(NC(=O)NCCC(C)(C)C)c(F)cc3C)c(C)nc2n1 | – | > 67100 nM
Cn1cc(C2=C(c3c(S(C)=O)n(C)c4ccccc34)C(=O)NC2=O)c2ccccc21 (centres undefined) | 6710 nM | > 25000 nM

SMILES | GI50 | TGI
Cc1cc(N)cc(C)c1-c1c(Br)cc(N)cc1Br | 2090 nM | 6580 nM
COC(=O)c1ccc2c(C(=Nc3ccc(N(C)C(=O)CN4CCN(C)CC4)cc3)c3ccccc3)c(O)[nH]c2c1 | 2130 nM | 9780 nM
FC(F)(F)c1ccc(NCc2nc3ccccc3[nH]2)cc1 | 16700 nM | 55600 nM
COc1cc(-c2nn(-c3cccc(NC(=O)CCN4CCN(C)CC4)c3)cc2-c2ccncc2)ccc1Cl | 997 nM | 2850 nM
Cc1cc(C#Cc2ccccc2)ccc1-n1c(/C=C/c2cc(O)ccc2O)nc2ccccc2c1=O | 1610 nM | 4190 nM
O=C1NC(=N[C@H](CO)c2ccccc2)S/C1=C\c1ccc2ncccc2c1 | 2060 nM | 8970 nM
O=C(O)c1cn(C2CC2)c2cc(N3CCN(Cc4ccc5ccccc5c4O)CC3)c(F)cc2c1=O | 4550 nM | > 100000 nM
COc1ccc(-c2nc3sccn3c2-c2ccnc(NCCCNS(=O)(=O)c3ccc(F)cc3)n2)cc1 | 1550 nM | 6480 nM
COc1ccc(/C=C2/CN(CCC#N)C/C(=C\c3ccc(OC)cc3)C2=O)cc1 | 1390 nM | 4950 nM
O=c1c2cc(-c3ccc(F)cc3F)ccc2n(O)c(=O)n1-c1cccc(C(F)(F)F)c1 | 1680 nM | 5400 nM
COc1ccc2nc3cc(Cl)ccc3c(Nc3cc(C(C)C)c(O)cc3C)c2c1 | 1560 nM | 4600 nM
CCCCNNC(=O)c1ccc(-c2cccc(F)c2F)cc1 | 1710 nM | 6060 nM
O=C(Nc1ccccc1)Nc1ccc(Cl)c(Cl)c1 | 2830 nM | 13900 nM
COCCOC1=C(Cl)C(=O)c2c(O)ccc(O)c2C1=O | 899 nM | 2450 nM
C#Cc1ccc(-n2c(/C=C/c3ccc4ccccc4c3)nc3ncccc3c2=O)cc1 | 963 nM | 7770 nM
O=C1NC(=O)C(c2c[nH]c3ccccc23)=C1c1ccccc1 | > 25000 nM | > 25000 nM
CN1CCN(c2ccc(Nc3ncc4cc5n(c4n3)C3(CCCCC3)CNC5=O)nc2)CC1 | 10900 nM | 36000 nM
Cc1[nH]n(-c2cccc(Cl)c2)c(=O)c1/C=C1\C=c2ccccc2=CC1=O | 17600 nM | 74700 nM
OCc1ccc(N(Cc2ccc(F)cc2)CC2CCC2)cc1Cl | 184 nM | 610 nM
COc1cc(Cn2c(SCC(=O)Nc3ccc(Cl)cc3)nc3ccccc3c2=O)cc(OC)c1OC | 7220 nM | 42400 nM
